{
  "source": "patent EP2135612A1",
  "about": "“Use of ATP in the preparation of a medicament for treating, alleviating and/or enhancing survival of pre-terminal cancer patients” (Universiteit van Maastricht, priority 2008, dated 2009)",
  "key": {"TNF-α": {"test_system": "TNF-α", "details": "ex vivo stimulated whole blood; via P2Y11 receptor; cited from earlier work"}, "[1]": {"test_system": "stage IIIB/IV NSCLC patients", "details": "15 chemotherapy-naïve stage IIIB/IV NSCLC patients; one to four 96-hour cycles i.v. ATP 50-65 µg/kg.min at 4-week intervals; cited from earlier work"}, "IL-10": {"test_system": "IL-10", "details": "ex vivo stimulated whole blood; cited from earlier work"}, "[2]": {"test_system": "pre-terminal cancer patients", "test": "Randomized clinical trial: nutritional status (anthropometric measurements, nutritional intake) during the 8-week ATP intervention", "format": "in vivo", "procedure": "(§1) Ninety-nine pre-terminal cancer patients (estimated life expectancy 1-6 mo) with mixed tumor types were randomly allocated to receive either ATP i.v. weekly (8 h/wk, max. 50 µg/kg.min) for 8 weeks, or no ATP (control group). Nutritional status parameters were assessed until 8 weeks, and analyzed by repeated-measures analysis of covariance. Cox proportional hazards models were fitted to assess the effect of ATP on short term (0-8 weeks) and long term (0-6 months) survival.\n(§2) After baseline measurements, patients were stratified for center, tumor type, and weight loss (≤5% vs. >5% over past 6 months), and then randomly assigned to receive either usual care, standard nutritional advice and ATP (ATP group), or usual care and standard nutritional advice alone (control) group), using computer-generated random numbers with permutation blocks of four. In both groups, nutritional status parameters and co-interventions were assessed until 8 weeks.\n(§3) Patients allocated to the ATP group received weekly ATP infusions during 8-10 hours over a period of 8 weeks (21). The first ATP infusion was offered under medical supervision at the day care center of the participating hospitals. ATP infusions were started at a dose rate of 20 µg/kg·min and increased in steps of 10 µg/kg·min per 10 minutes, until reaching a maximum dose rate of 50 µg/kg·min, or the maximally tolerated dose (MTD) if this was lower, in case of side effects. Thereafter, ATP was Infused at a continuous rate. Subsequent infusions were given at MTD in the patient's home.\nBody height was determined using a flexible measuring tape. Body weight was measured without shoes, using an electronic scale (Soehnle 7407 Translucia, Germany). Triceps skin fold thickness was measured in triplicate at the dominant arm, with a Holtain® skin fold caliper (CMS weighing equipment LTD, London UK), and the median used for further calculations. Mid-upper arm circumference was measured in duplicate at the dominant side with a flexible measuring tape, and the mean value was used for further calculations.\nIn order to exclude inter-observer variability, longitudinal measurements in one patient were performed by one observer. Nutritional intake was assessed by a 3-day food diary, including meal preparation details, and checked by an experienced dietician. Intake of energy and protein was calculated using the Dutch Food Composition Table 2001 (NEVO, The Hague, The Netherlands), by the Software Program Komeet (version 4.0.58; BaS Nutrition Software, Arnhem, The Netherlands).\nData were doubly entered and analyzed according to the intention-to-treat principle. Curves were fitted to describe the time course of nutritional status parameters, and differences over time between the two groups appraised by repeated measurement analysis of covariance, using SAS Proc Mixed version 9.1 (SAS Institute Inc., Cary, NC, USA). Independent variables were the treatment indicator variable, the baseline measurement, measurement time, and the interaction between time and treatment. Statistical significance of treatment effects was assessed by testing the interaction between time and treatment. For weight analyses, patients with oedema and/or ascites were excluded. Because of the favorable previous results in patients with lung cancer (17), all analyses were repeated for this subgroup separately."}, "[3]": {"test_system": "pre-terminal cancer patients", "test": "Randomized clinical trial: survival (Cox regression, Kaplan-Meier)", "format": "in vivo", "procedure": "as §1, §2, §3\nCox regression models were fitted including interaction terms between treatment and dummy variables for short term (i.e. 0-8 wks) and long term survival (i.e. 0-6 mo; dummy variables for 0-8 wks and 8 wks-6 mo were combined into a single dummy variable (0-6 mo) since Cox proportional hazards assumption was tested and not rejected). Median survival time was determined by extrapolation from confounder-adjusted Kaplan Meier plots. Because of previously shown survival benefit of ATP treatment in weight-losing stage IIIB NSCLC patients (18), we also performed stratified analyses in weight-stable and weight-losing patients separately defined as ≤5% or >5% weight loss over the past 6 months (22).\nAll models were appropriately adjusted for confounders. Two-tailed p-values <0.05 were considered statistically significant."}, "[4]": {"test_system": "patients with non-small-cell lung cancer (NSCLC)", "details": "cited from earlier work"}},
  "data": [
    {"smiles": "Nc1ncnc2c1ncn2[C@@H]1O[C@H](COP(=O)(O)OP(=O)(O)OP(=O)(O)O)[C@@H](O)[C@H]1O", "note": "[ATP, adenosine 5'-triphosphate]", "values": [
      {"measurement": "TNF-α release", "setting": "TNF-α", "value": "inhibited"},
      {"measurement": "stable disease", "setting": "[1]", "value": 8, "unit": "patients"},
      {"measurement": "IL-10 release", "setting": "IL-10", "value": "enhanced"},
      {"measurement": "Weight, change per 8 weeks, ATP group Estimate", "setting": "[2]; ATP i.v. weekly 8-10 h, max. 50 µg/kg·min, 8 weeks, n=26, oedema/ascites excluded", "value": -2.62, "unit": "kg"},
      {"measurement": "Triceps skin fold thickness, change per 8 weeks, ATP group Estimate", "setting": "[2]; ATP i.v. weekly, max. 50 µg/kg·min, 8 weeks, n=48", "value": -1.84, "unit": "mm"},
      {"measurement": "Mid-upper arm circumference, change per 8 weeks, ATP group Estimate", "setting": "[2]; ATP i.v. weekly, max. 50 µg/kg·min, 8 weeks, n=49", "value": -2.24, "unit": "cm"},
      {"measurement": "intake of energy and protein, difference between the two groups", "setting": "[2]; ATP vs. control, 8 weeks, 3-day food diary", "value": "No statistically significant difference"},
      {"measurement": "Triceps skin fold thickness, Between group difference Estimate per 8 weeks", "setting": "[2]; ATP vs. control, p=0.009", "value": 1.76, "unit": "mm"},
      {"measurement": "patients still alive on the census date", "setting": "[3]; census date 10 September 2007, ATP group n=51", "value": 6, "unit": "patients"},
      {"measurement": "HR, survival", "setting": "[3]; lung cancer patients with >5% overall weight loss, p=0.052", "value": 0.21},
      {"measurement": "HR, survival 0-8 weeks", "setting": "[3]; patients with lung cancer (n=44)", "value": 0.17},
      {"measurement": "HR, survival 0-6 months", "setting": "[3]; patients with lung cancer (n=44), p=0.025", "value": 0.35},
      {"measurement": "HR of ATP vs. control, short-term (0-8 weeks) survival", "setting": "[3]; total group (ATP n=51; control n=48), p=0.037", "value": 0.40},
      {"measurement": "Median survival", "setting": "[3]; total group, ATP group, extrapolated from confounder-adjusted Kaplan Meier plots", "value": 150, "unit": "days"},
      {"measurement": "HR, long term survival (0-6 months)", "setting": "[3]; total group, p=0.26, not significant", "value": 0.71},
      {"measurement": "effect on survival", "setting": "[3]; weight-losing patients (>5% weight loss over past 6 months)", "value": "No significant effect"},
      {"measurement": "HR, survival during the 8-week intervention", "setting": "[3]; weight-stable patients (≤5% weight loss over past 6 months; ATP n=33; control n=31), p=0.001", "value": 0.20},
      {"measurement": "HR, long term survival (0-6 months)", "setting": "[3]; weight-stable patients, p=0.014", "value": 0.40},
      {"measurement": "effects on nutritional intake, body weight, fat and muscle mass", "setting": "[4]; ATP infusions over 30 h at 2- to 4-week intervals, max. 75 µg/kg.min", "value": "marked beneficial effects"},
      {"measurement": "survival", "setting": "[4]; weight-losing patients with stage IIIB NSCLC", "value": "highly significant survival benefit"}
    ]}
  ]
}
